# Values joined by “and” are separate entries in the source; they are usually repeats but may differ in a detail not shown here. Identical values can stand only once. Toxic doses and inconclusive results are not listed.
# Test system: CD2F1 mice, L1210 leukemia ip, survival T/C
# Experiment: NCI In Vivo Anticancer Drug Screen. Data for tumor model L1210 Leukemia (intraperitoneal) in CD2F1 (CDF1) mice
# Conditions: endpoint: mean survival time, higher = longer survival
# Procedure, shortened: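 Antitumor effect is scored in animals hosting a serially transplanted tumor. Values compare compound-dosed animals against vehicle-only controls as a simple quotient.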
# [1] = dose: 100.0 mg/kg/injection, schedule: Q04DX003 (ip), vehicle: saline
# [2] = dose: 200.0 mg/kg/injection, schedule: Q04DX003 (ip), vehicle: saline
# [3] = dose: 25.0 mg/kg/injection, schedule: Q01DX009 (ip), vehicle: saline with Tween-80
# [4] = dose: 100.0 mg/kg/injection, schedule: Q01DX009 (ip), vehicle: saline with Tween-80
# [5] = dose: 100.0 mg/kg/injection, schedule: Q04DX003 (ip), vehicle: saline with Tween-80
# [6] = dose: 200.0 mg/kg/injection, schedule: Q04DX003 (ip), vehicle: saline with Tween-80
# [7] = dose: 400.0 mg/kg/injection, schedule: Q04DX003 (ip), vehicle: saline with Tween-80
# [8] = dose: 100.0 mg/kg/injection, schedule: Q01DX009 (ip), vehicle: saline
# [9] = dose: 200.0 mg/kg/injection, schedule: Q01DX009 (ip), vehicle: saline
# [10] = dose: 400.0 mg/kg/injection, schedule: Q01DX009 (ip), vehicle: saline
# [11] = dose: 200.0 mg/kg/injection, schedule: Q01DX009 (ip), vehicle: saline with Tween-80
# [12] = dose: 400.0 mg/kg/injection, schedule: Q01DX009 (ip), vehicle: saline with Tween-80
smiles,measurement,setting,value
CCN(CC)Cc1ccc([NH-])c([NH-])c1.CCN(CC)Cc1ccc([NH-])c([NH-])c1.[Cl][Pt+2][Cl].[Cl][Pt+2][Cl].[Cl][Pt+2][Cl],T/C,"dose: 3.13 mg/kg/injection, schedule: Q04DX003 (ip), vehicle: water",103 % of control
same,T/C,"dose: 6.25 mg/kg/injection, schedule: Q04DX003 (ip), vehicle: water",108 % of control
same,T/C,"dose: 12.5 mg/kg/injection, schedule: Q04DX003 (ip), vehicle: water",110 % of control
same,T/C,"dose: 25.0 mg/kg/injection, schedule: Q04DX003 (ip), vehicle: water",119 % of control
same,T/C,"dose: 50.0 mg/kg/injection, schedule: Q04DX003 (ip), vehicle: water",89 % of control
Brc1ccccc1CCc1ccccc1Br,T/C,"dose: 50.0 mg/kg/injection, schedule: Q04DX003 (ip), vehicle: saline",97 % of control
same,T/C,[1],95 % of control
same,T/C,[2],100 % of control
COc1ccc(SC(=O)N(C)C)cc1,T/C,[3],100 % of control
same,T/C,"dose: 50.0 mg/kg/injection, schedule: Q01DX009 (ip), vehicle: saline with Tween-80",103 % of control
same,T/C,[4],95 % of control and 98 % of control
CCCCCCCCCC(C(=O)OCC)(C(=O)OCC)C1CCCC1,T/C,"dose: 100.0 mg/kg/injection, schedule: Q01DX001 (ip), vehicle: saline sonified",106 % of control
same,T/C,[5],100 % of control
same,T/C,"dose: 200.0 mg/kg/injection, schedule: Q01DX001 (ip), vehicle: saline sonified",100 % of control
same,T/C,[6],100 % of control
same,T/C,"dose: 400.0 mg/kg/injection, schedule: Q01DX001 (ip), vehicle: saline sonified",90 % of control
same,T/C,[7],97 % of control
Cc1ncc(CO)c(CO)c1O,T/C,[8],100 % of control
same,T/C,[9],94 % of control
same,T/C,[10],95 % of control
C=CCSc1ncnc2c1ncn2C1OC(CO)C(O)C1O (stereo not given),T/C,"dose: 88.0 mg/kg/injection, schedule: Q01DX009 (ip), vehicle: carboxymethylcellulose (CMC)",154 % of control
same,T/C,"dose: 133.0 mg/kg/injection, schedule: Q01DX009 (ip), vehicle: carboxymethylcellulose (CMC)",158 % of control
CCCCCCCCCCCCCCCC(=O)OCC1OC(n2ccc(N)nc2=O)C(O)C1O (stereo not given),T/C,"dose: 6.25 mg/kg/injection, schedule: Q01DX008 (ip), vehicle: saline",320 % of control
same,T/C,"dose: 12.5 mg/kg/injection, schedule: Q01DX008 (ip), vehicle: saline",377 % of control
same,T/C,"dose: 16.0 mg/kg/injection, schedule: Q01DX008 (oral), vehicle: saline",117 % of control
same,T/C,"dose: 16.0 mg/kg/injection, schedule: Q03HX024 (oral), vehicle: saline with Tween-80",202 % of control
same,T/C,"dose: 20.0 mg/kg/injection, schedule: Q01DX009 (ip), vehicle: saline with Tween-80",479 % of control
same,T/C,"dose: 25.0 mg/kg/injection, schedule: Q01DX001 (ip), vehicle: saline with Tween-80",150 % of control
same,T/C,"dose: 25.0 mg/kg/injection, schedule: Q01DX008 (ip), vehicle: saline",491 % of control
same,T/C,[3],484 % of control
same,T/C,"dose: 30.0 mg/kg/injection, schedule: Q01DX009 (ip), vehicle: saline with Tween-80",184 % of control
same,T/C,"dose: 32.0 mg/kg/injection, schedule: Q03HX024 (oral), vehicle: saline with Tween-80",235 % of control
same,T/C,"dose: 50.0 mg/kg/injection, schedule: Q01DX001 (ip), vehicle: saline with Tween-80",192 % of control
same,T/C,"dose: 50.0 mg/kg/injection, schedule: Q01DX008 (ip), vehicle: saline",285 % of control
same,T/C,"dose: 64.0 mg/kg/injection, schedule: Q03HX024 (oral), vehicle: saline with Tween-80",265 % of control
same,T/C,"dose: 100.0 mg/kg/injection, schedule: Q01DX001 (ip), vehicle: saline with Tween-80",312 % of control
same,T/C,"dose: 125.0 mg/kg/injection, schedule: Q01DX001 (ip), vehicle: saline with Tween-80",580 % of control
same,T/C,"dose: 128.0 mg/kg/injection, schedule: Q01DX001 (oral), vehicle: saline with Tween-80",102 % of control
same,T/C,"dose: 128.0 mg/kg/injection, schedule: Q01DX008 (oral), vehicle: saline",151 % of control
same,T/C,"dose: 128.0 mg/kg/injection, schedule: Q03HX024 (oral), vehicle: saline with Tween-80",295 % of control
same,T/C,"dose: 128.0 mg/kg/injection, schedule: Q04DX003 (oral), vehicle: saline",119 % of control
same,T/C,"dose: 150.0 mg/kg/injection, schedule: Q01DX001 (ip), vehicle: saline with Tween-80",608 % of control
same,T/C,"dose: 200.0 mg/kg/injection, schedule: Q01DX001 (ip), vehicle: saline with Tween-80",612 % of control
same,T/C,"dose: 250.0 mg/kg/injection, schedule: Q01DX001 (ip), vehicle: saline with Tween-80",214 % of control
same,T/C,"dose: 256.0 mg/kg/injection, schedule: Q01DX001 (oral), vehicle: saline with Tween-80",101 % of control
same,T/C,"dose: 300.0 mg/kg/injection, schedule: Q01DX001 (ip), vehicle: saline with Tween-80",83 % of control
same,T/C,"dose: 512.0 mg/kg/injection, schedule: Q01DX001 (oral), vehicle: saline with Tween-80",108 % of control
same,T/C,"dose: 512.0 mg/kg/injection, schedule: Q01DX009 (oral), vehicle: saline",169 % of control
same,T/C,"dose: 1024.0 mg/kg/injection, schedule: Q01DX001 (oral), vehicle: saline with Tween-80",109 % of control
same,T/C,"dose: 1024.0 mg/kg/injection, schedule: Q01DX009 (oral), vehicle: saline",177 % of control
OCC1C2C=CC(c3ccccc32)C1CO (stereo not given),T/C,"dose: 50.0 mg/kg/injection, schedule: Q04DX002 (ip), vehicle: saline with Tween-80",106 % of control
same,T/C,"dose: 100.0 mg/kg/injection, schedule: Q04DX002 (ip), vehicle: saline with Tween-80",88 % of control
same,T/C,"dose: 200.0 mg/kg/injection, schedule: Q04DX002 (ip), vehicle: saline with Tween-80",95 % of control
CC(C)OC(=O)Nc1ccc(F)cc1F,T/C,[5],96 % of control
same,T/C,[6],102 % of control
same,T/C,[7],98 % of control
COc1cccc2c1C(=O)c1c(O)c3c(c(O)c1C2=O)C[C@@](O)(/C(C)=N\NC=O)C[C@@H]3OC1CC(N)C(O)C(C)O1 (stereo not given in full),T/C,"dose: 0.65 mg/kg/injection, schedule: Q01DX009 (ip), vehicle: saline",113 % of control
same,T/C,"dose: 1.0 mg/kg/injection, schedule: Q01DX009 (ip), vehicle: saline",106 % of control
same,T/C,"dose: 1.08 mg/kg/injection, schedule: Q01DX009 (ip), vehicle: saline",118 % of control
same,T/C,"dose: 1.8 mg/kg/injection, schedule: Q01DX009 (ip), vehicle: saline",114 % of control
same,T/C,"dose: 2.0 mg/kg/injection, schedule: Q01DX009 (ip), vehicle: saline",124 % of control
same,T/C,"dose: 3.0 mg/kg/injection, schedule: Q04DX003 (ip), vehicle: saline",123 % of control
same,T/C,"dose: 4.0 mg/kg/injection, schedule: Q01DX009 (ip), vehicle: saline",123 % of control
same,T/C,"dose: 5.0 mg/kg/injection, schedule: Q04DX003 (ip), vehicle: saline",120 % of control
same,T/C,"dose: 16.0 mg/kg/injection, schedule: Q01DX009 (ip), vehicle: saline",161 % of control
same,T/C,"dose: 22.2 mg/kg/injection, schedule: Q04DX003 (ip), vehicle: saline",176 % of control
CC(C)OC(=S)S,T/C,[8],101 % of control
same,T/C,[1],100 % of control
same,T/C,[9],102 % of control
same,T/C,[2],97 % of control
same,T/C,[10],107 % of control
same,T/C,"dose: 400.0 mg/kg/injection, schedule: Q04DX003 (ip), vehicle: saline",88 % of control
CN(CC(=O)C(C)(C)C)C1CCCCC1,T/C,[1],91 % of control
O=c1cccc(Cl)[nH]1,T/C,[4],102 % of control
same,T/C,[5],98 % of control
same,T/C,[11],102 % of control
same,T/C,[6],102 % of control
same,T/C,[12],90 % of control
same,T/C,[7],98 % of control
COc1ccc(-c2cnc(C(N)=O)c(=O)[nH]2)cc1,T/C,[4],100 % of control
same,T/C,[11],96 % of control
same,T/C,[12],101 % of control
CCCCCCCCCCCCCCCCNCC(O)CN (stereo not given),T/C,"dose: 12.5 mg/kg/injection, schedule: Q04DX002 (ip), vehicle: saline",95 % of control
same,T/C,"dose: 25.0 mg/kg/injection, schedule: Q04DX002 (ip), vehicle: saline",106 % of control
same,T/C,"dose: 50.0 mg/kg/injection, schedule: Q04DX002 (ip), vehicle: saline",103 % of control

# From PubChem BioAssay AID256 (DTP/NCI, 2004)
